# Results published in PubChem BioAssay AID1996.
# Details: buffer; pH 7.4; 200.0 µM
row,Compound,solubility kinetic [µg/mL]
1,Cc1ccc(S(=O)(=O)N2CCCC(C)C2)cc1 (stereo unspecified),21.3
2,O=C(Nc1cccc2cccnc12)c1cc(F)c(F)cc1Cl,< 0.3
3,O=C(/C=C/c1cccnc1)c1ccc(O)cc1,28.5
4,COc1ccc2[nH]cc(CCNCc3cccnc3)c2c1.Cl,46.2
5,COCCn1c(SCC(=O)Nc2cccnc2Cl)nc2ccccc21,7.4
6,O=C(NC(=O)c1ccccc1)Nc1ccccc1,1.2
7,Cc1cccc(N2CCN(C(=O)c3ccnn3C)CC2)c1C,> 44.8
8,Nc1cc(=O)[nH]c(SCCSc2ccccc2)n1,9.6
9,CCCCn1nc(CC(=O)NCCN(CC)CC)c2ccccc2c1=O,> 53.8
10,N#CN=C(c1ccccc1)c1ccccc1,30.4
11,Cc1ccc(C(=O)COC(=O)CN2C(=O)C3C4C=CC(C4)C3C2=O)cc1C (stereo unspecified),> 55.1
12,O=C(NCC(=O)N1CCN(S(=O)(=O)c2ccc3c(c2)OCCO3)CC1)c1ccccc1F,10.2
13,COc1ccc(CN2C(=O)C(C)Oc3ccccc32)cc1 (stereo unspecified),23.4
14,O=C1NC(=Nc2cccnc2)S/C1=C\c1cccc(F)c1,3.2
15,COc1cc(SC)ccc1C(=O)Nc1cccc(C)n1,3.4
16,O=C(CNC(=O)C1COc2ccccc2O1)Nc1ccc(F)c(F)c1 (stereo unspecified),18.3
17,COc1ccc(OCC(=O)Nc2nc3cc4c(cc3s2)OCCO4)cc1,4.6
18,O=C(c1ccco1)N1CCCC(Nc2ccc3c(c2)OCCO3)C1 (stereo unspecified),44.7
19,Cc1ccc(C(=O)Nc2c(C)cc(C)c3cccnc23)cc1,0.5
20,Cc1cc(=O)oc2cc(NC(=O)c3ccc(OC(F)F)cc3)ccc12,1
21,O=C(CNS(=O)(=O)c1ccc(F)cc1)N1CCCC1,> 42.9
22,Cc1cc(C)c(NC(=O)CCCN2CCCC2)c(C)c1,> 41.2

row,Compound,solubility kinetic [µg/mL]
1,O=C(/C=C/c1ccc2c(c1)OCO2)c1ccccn1,4.2
2,COC(=O)c1ccc(OC(=O)c2cccnc2SC)cc1,< 0.6
3,Cc1ccc(NC(=O)N(C)c2ccccc2)cc1,> 36
4,Cn1ncc(Cl)c1C(=O)N1CCC2(CC1)OCCO2,> 42.9
5,COc1cc2c(cc1OC)CC1(CCCCC1)N=C2.Cl,> 44.4
6,CCCN(CC(=O)Nc1ccc(F)c(F)c1F)C(=O)c1ccc2c(c1)NC(=O)CS2,11.2
7,COc1ccc(CCCC(=O)Nc2cc(C)ccc2OC)cc1,20
8,O=c1oc2ccc([N+](=O)[O-])cc2c(N2CCOCC2)c1[N+](=O)[O-],> 48.2
9,CSC1=C(C#N)C(=O)NC(c2ccc(Cl)cc2)S1 (stereo unspecified),11.9
10,O=C1Nc2ccccc2/C1=C/c1ccnc2ccccc12,3.5
11,CCCS(=O)(=O)N1CCN=C1SCc1cccc(F)c1,39.6
12,O=C(NCCc1ccncc1)Nc1ccc(F)cc1,> 38.9
13,CC(C)c1nc(SCC(=O)NC2CCCC2)c2ccccc2n1,6.1
14,O=c1oc2ccccc2c(Cl)c1CN1CCCCC1,41.4
15,CC(=O)O/C(=C\c1cn(C(C)=O)c2ccccc12)C(=O)O,> 43.1
16,O=C(NC1CC1)c1ccc(CSCc2ccccc2Cl)o1,> 48.3
17,CC(OC(=O)CCOc1ccccc1)C(=O)NC1CC1 (stereo unspecified),> 41.6
18,Cc1onc(-c2ccccc2)c1C(=O)Nc1cccc(S(=O)(=O)N2CCCCC2)c1,2.5
19,O=C(CCc1cccc(Cl)c1)N1CCCC(Nc2ccccc2)C1 (stereo unspecified),27.4
20,CC(C)(C)c1nc(SCC(=O)NC2CCCC2)c2ccccc2n1,0.6
21,CCCOc1ccccc1/C=C(\C#N)C(=O)Nc1cccnc1,6.8
22,Nc1ccc(-c2nc3ncccc3o2)c(O)c1,3.1

row,Compound,solubility kinetic [µg/mL]
1,O=C(Cn1cc([N+](=O)[O-])ccc1=O)N1CCCc2ccccc21,> 47
2,Cc1cccnc1NC(=O)CCNC(=O)c1ccccc1Cl,> 47.7
3,Cc1ccc2c(c1)C(=O)OC1(O)C3C4C=CC(C4)C3C(=O)N21 (stereo unspecified),> 44.6
4,CC(=O)Nc1ccc(S(=O)(=O)NCCCc2ccccc2)cc1,> 49.9
5,Nc1cc(C(=O)O)ccc1Sc1ccccc1C(=O)O,> 43.4
6,COc1ccccc1N1CCN(C2CCC(C)CC2)CC1 (stereo unspecified),31.7
7,COC(=O)[C@@H]1CCCN1Cc1nc(Cc2ccc(OC)c(OC)c2)no1,> 54.2
8,Cc1ccn2cc(CCNC(=O)C3CC=CCC3C(=O)O)nc2c1 (stereo unspecified),45.7
9,COC(=O)c1cn(C(=O)c2cccc(C)c2)c2ccccc12,3.9
10,COC(=O)c1ccc(NC(=O)C[n+]2ccccc2C)cc1.[Cl-],> 48.1
11,CCOC(=O)NC(=S)Nc1ccc(OC)cc1,25.6
12,COc1ccc(NC(=O)c2cc(C)no2)cc1Cl,7.5
13,Cc1cccc(OCCCN2CCOCC2)c1,28
14,O=C(COC(=O)c1cccc(Cl)c1Cl)NC1CCCC1,12.8
15,COc1ccccc1C(=O)CN1C(=O)NC2(CCCc3ccccc32)C1=O (stereo unspecified),8.4
16,CC(O)CNCCCOc1cccc(C(F)(F)F)c1.O=C(O)C(=O)O (stereo unspecified),51.7
17,Cc1cc(C)c(C#N)c(SCCN2CCOCC2)n1,> 41.6
18,COc1ncnc(OC)c1S(=O)(=O)NCc1ccccc1,> 46.4
19,CCOC(=O)C1=C(Nc2ccc(OC)cc2)OCC1=O,39.5
20,CC(=O)Nc1ccc(S(=O)(=O)c2cc(O)ccc2O)cc1,> 46.1
21,O=C(O)CN1C(=O)/C(=C/c2ccccc2Cl)Oc2ccccc21,> 49.5
22,O=C(c1ccc(Cl)cc1)N1CCOc2ccccc21,40.3

row,Compound,solubility kinetic [µg/mL]
1,COc1cc2ccccc2cc1C(=O)N1CCN(c2ccccn2)CC1,> 52.1
2,O=S(=O)(c1cccs1)N1CCC(CO)(Cc2cccc(F)c2)CC1,53.8
3,CN1C(=O)/C(=C/c2ccc(O)c([N+](=O)[O-])c2)N(C)C1=S,4.5
4,O=C(OCCCOC(=O)c1cc[n+]([O-])cc1)c1cc[n+]([O-])cc1,> 47.7
5,COc1cccc(Nc2cc(C)c3ccccc3n2)c1,8.7
6,Cn1c(/C(C#N)=C(\O)c2ccc([N+](=O)[O-])cc2)nc2ccccc21,< 0.2
7,Cc1cccc(Cc2nnc(CCC(=O)N(C)Cc3ccncc3C)o2)c1,> 54.7
8,CC(C)(C)C(=O)N1CCN(C(c2ccccc2)c2ccccc2)CC1,28.3
9,O=Cc1ccc(OCCOc2ccc([N+](=O)[O-])cc2)cc1,< 0.6
10,COc1ccccc1C(=O)NCCC(=O)N(C)Cc1ccc(C)o1,> 49.6
11,CCN1C(=O)CSC1=Nc1ccc(Cl)c(Cl)c1,9.8
12,COc1cccc(S(=O)(=O)c2nc(C)c3c(n2)CCC3)c1,> 45.7
13,CC(=O)c1c(C)[nH]c(C(=O)COC(=O)c2nccnc2N)c1C,11.9
14,COC(=O)[C@H](Cc1ccccc1)NC(=O)N1CCCCCC1,> 45.7
15,O=C1CCC(=O)N1c1ccc(S(=O)(=O)N2CCCC2)cc1,45.4
16,O=C(COC(=O)c1cnccn1)Nc1cccc2ccccc12,> 46.1
17,CC(C)=CC(=O)N1CC[C@@H](N2CCN(c3ccccc3F)CC2)[C@H](O)C1,> 54.2
18,Cc1cc(O)c(N=Cc2cc3c(cc2[N+](=O)[O-])OCO3)cc1C,7
19,Cc1cccc(C(=O)NCCNC(=O)c2ccco2)c1,34.5
20,Cc1ccc(NC(=O)CCC(=O)c2cccs2)cc1F,4.3
